Results on 25 compounds are retold here after PubChem BioAssay (NCI).

What all share (test): NCI-60 cell line screen, 48 h
The test system of assay [1] is PC-3 prostate.
In assay [2] the test system is NCI/ADR-RES ovarian.
The test system of assay [3] is OVCAR-8 ovarian.
For assay [4], the system named is EKVX NSCLC.
Assay [5] deals with MALME-3M melanoma.
Assay [6] concerns A498 renal.
In assay [7] the test system is SK-OV-3 ovarian.
In assay [8] the test system is OVCAR-3 ovarian.
Assay [9] relates to HT29 colon.
Assay [10] relates to HS 578T breast.
Assay [11] relates to NCI-H522 lung.
Assay [12] deals with K-562 leukemia.

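Following 48 hours of exposure in 96-well plates, responses at five concentrations were used to interpolate endpoints linearly. At the TGI there is no net growth.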 A value given as a limit tells only on which side of the number the result lay.

As to `O=C1c2cc([N+](=O)[O-])sc2C(=O)c2cc([N+](=O)[O-])sc21`, the TGI in assay [1] was determined as 15.9 µM; in [2], 11.3 µM; in assay [3], 18.6 µM; in assay [4] it was 7.78 µM; in [5], 2.38 µM; in assay [6], 32.7 µM. Moreover, the TGI in [7] is 25.2 µM; in assay [8] it was 6.65 µM; in assay [9], 11.5 µM; in assay [10], 35 µM; in assay [11], 3.02 µM.
For `CCSc1nc(C)nc2c1sc1nc3ccccc3n12`, the TGI in assay [1], in assay [2], in assay [3], in assay [4], in assay [12] and in assay [6] was greater than 100 µM in each case. Moreover, the TGI was greater than 100 µM in assay [7]; greater than 100 µM in assay [8]; greater than 100 µM in assay [9]; 92.9 µM in [10]; greater than 100 µM in [11].
`CC(C)(C)OC(=O)N1CCC(NC(=O)NC2CCN(C(=O)OC(C)(C)C)CC2)CC1`: the TGI in assay [1], in assay [2], in [3], in [4], in assay [5] and in [6] was greater than 100 µM each time. Also, the TGI in assay [8], in assay [9], in [10] and in assay [11] was greater than 100 µM in each case.
Regarding `N#CC1=C(S)N(C2OC(CO)C(O)C(O)C2O)C(c2ccccc2)=CC1c1cccs1` (stereo not given), the TGI in assay [1] was 30.8 µM; in assay [2], greater than 100 µM; in [3], 65.9 µM; in [12], greater than 100 µM; in assay [5], 38.7 µM; in [6], greater than 10 µM. Also, the TGI in assay [8] stood at 80.2 µM; in assay [9], 37.5 µM; in assay [10], 67 µM; in [11], 47.5 µM.
Regarding `COc1cc2c3c(c1OC)C(=O)C(=O)C1=C3N(CCC1)CC2`, the TGI in [1] is greater than 100 µM; in assay [2], greater than 100 µM; in [3], greater than 100 µM; in [4], 64.8 µM; in assay [12] it was 71.8 µM; in assay [6], 92.6 µM. In addition, the TGI was 73.3 µM in [8], greater than 100 µM in assay [9], 47.6 µM in assay [10] and 72.2 µM in assay [11].
Take `OC[C@@H](O)[C@H](O)[C@@H](O)/C=N/Nc1ccc(Cl)nn1`: the TGI in [1], in [2], in [3], in assay [4], in assay [5] and in assay [6] was greater than 100 µM each time. Also, the TGI in assay [7], in [8], in [9], in [10] and in assay [11] was greater than 100 µM each time.
As for `COc1ccc2[nH]c3c(C)c4ncccc4c(C)c3c2c1`, the TGI was greater than 10 µM in assay [1]; greater than 10 µM in assay [2]; greater than 10 µM in assay [3]; greater than 10 µM in [4]; greater than 10 µM in [12]; 3.42 µM in [5]. The TGI was greater than 10 µM in assay [7]; 9.09 µM in assay [8]; 6.98 µM in assay [9]; greater than 10 µM in assay [10]; greater than 10 µM in assay [11].
Turning to `Fc1cc2nc3n(c2cc1F)C(c1c(Cl)cccc1Cl)SC3` (stereo not given), the TGI in assay [1] was 31.3 µM; in assay [2], 37.7 µM; in assay [3], 29.5 µM; in assay [4], 32.5 µM; in [5], 33.8 µM; in assay [6], 34.6 µM. For the same compound, the TGI amounted to 30.6 µM in [7]; 25.7 µM in assay [8]; 29.8 µM in [9]; 53.2 µM in assay [10]; 35.1 µM in assay [11].
With `CCOc1cc(/C=C2\N=C(c3ccccc3)N(c3nc4ccccc4s3)C2=O)ccc1O`, the TGI in assay [1] was 79.4 µM; in assay [2] it was 67.8 µM; in [3], greater than 100 µM; in [4], greater than 100 µM; in [12], greater than 100 µM; in assay [6], greater than 100 µM. The TGI in assay [7] is greater than 100 µM; in assay [8] it was greater than 100 µM; in [9] it was greater than 100 µM; in assay [10], 85.6 µM; in [11] it was 60 µM.
As to `S=C(S)N1CCN(c2ccccc2)CC1`, the TGI in assay [1], in [2], in assay [3], in assay [4], in assay [12] and in [5] was greater than 100 µM throughout. Further, the TGI in assay [6], in assay [8], in assay [9], in assay [10] and in [11] was greater than 100 µM each time.
For `NC(Cc1ccc(O)cn1)C(=O)O` (stereo not given), the TGI in assay [1], in [2], in assay [3], in assay [4], in [12] and in [5] was greater than 100 µM throughout. Also, the TGI in assay [6], in [8], in [9], in assay [10] and in assay [11] was greater than 100 µM each time.
`CS(=O)(=O)CCC(N)P(=O)(O)O` (stereo not given): the TGI in assay [1], in [2], in assay [3], in assay [4], in [12] and in assay [5] was greater than 100 µM each time. The TGI in assay [7], in assay [8], in assay [9], in assay [10] and in assay [11] was greater than 100 µM throughout.
As to `COc1ncc(C#CC(=O)c2ccccc2)c(OC)n1`, the TGI in assay [1] amounted to 4.43 µM; in assay [2], 7.73 µM; in [3], 8.72 µM; in assay [4], 9.16 µM; in assay [5], 3.62 µM; in assay [6] it was 32.4 µM. The TGI came to 42.1 µM in assay [7]; 10.3 µM in [8]; 5.07 µM in assay [9]; 87 µM in assay [10]; 2.81 µM in assay [11].
As for `COc1cc(OC2OC(CO)C(O)C(O)C2O)c2c(c1)O[C@@H]1[C@H](O)Oc3cc(OC)c(OC)cc3[C@]1(O)C2=O` (stereo not given in full), the TGI in assay [1], in assay [2], in assay [3], in [4], in assay [12] and in assay [6] was greater than 25 µM each time. The TGI in [7], in assay [8], in assay [9], in assay [10] and in [11] was greater than 25 µM throughout.
Turning to `CC1(C)/C(=N\Nc2ccc([N+](=O)[O-])cc2[N+](=O)[O-])C2CCC1C2` (stereo not given), the TGI in assay [1], in assay [2], in assay [3], in assay [4], in assay [12] and in [5] was greater than 100 µM throughout. Besides, the TGI in [7] is greater than 100 µM; in [8], greater than 100 µM; in [9] it was greater than 100 µM; in assay [10] it was 98.6 µM; in assay [11] it was greater than 100 µM.
Consider `CC(=O)OCCCCn1cnc2c(Cl)nc(Nc3ccccc3)nc21`, for which the TGI in assay [1], in [2], in assay [3], in assay [4], in assay [12] and in assay [5] was greater than 100 µM in each case. The TGI in assay [6] is greater than 100 µM; in assay [8] it was greater than 100 µM; in [9] it was greater than 100 µM; in assay [10] it was greater than 100 µM; in assay [11], 87.4 µM.
For `Cc1ccc2c(=O)c(C(=O)NNC(=S)NC3CCCCC3)c[nH]c2n1`, the TGI in assay [1], in assay [2], in assay [3], in [4], in assay [12] and in [5] was greater than 100 µM in each case. For the same compound, the TGI in assay [6], in assay [8], in [9], in assay [10] and in assay [11] was greater than 100 µM throughout.
As for `CCN(CCCl)c1cc(CN(C)C)cc(NC(=O)c2ccc(C(=O)Nc3ccccc3)cc2)c1`, the TGI in assay [1] was 1.56 µM; in assay [2] it was 11.4 µM; in [3] it was 6.34 µM; in assay [12], 8.31 µM; in assay [5], 0.425 µM; in assay [6], 1.8 µM. The TGI was 11.1 µM in [7], 0.414 µM in assay [9], 0.583 µM in assay [10] and 0.317 µM in assay [11].
`C(/C=C/Nc1ccc(-c2ccccc2)cc1)=Nc1ccc(-c2ccccc2)cc1`: the TGI in assay [1], in assay [2], in assay [3], in [4], in assay [12] and in assay [7] was greater than 100 µM in each case. The TGI in assay [8], in assay [9], in [10] and in [11] was greater than 100 µM throughout.
On to `COc1ccc(NC(=O)CC(=O)N2N=C(C)C(N=Nc3ccc(C(=O)O)cc3)C2=O)cc1` (stereo not given), for which the TGI in [1], in assay [2], in assay [3], in assay [4], in [12] and in assay [5] was greater than 100 µM each time. The TGI in assay [6], in [8], in [9], in assay [10] and in assay [11] was greater than 100 µM in each case.
With `Cc1cc(=O)n2nc(CSc3n[nH]c(=S)s3)sc2n1`, the TGI in [1], in [2], in assay [3], in assay [4], in [12] and in [5] was greater than 100 µM in each case. Further, the TGI in [7], in assay [8], in assay [9], in assay [10] and in assay [11] was greater than 100 µM throughout.
Take `Nc1nc(Cc2ccccc2)nc(Cc2ccccc2)c1-c1ccccc1`: the TGI was 77.7 µM in [1]; 55 µM in assay [2]; greater than 100 µM in assay [3]; greater than 100 µM in [4]; greater than 100 µM in [12]; 50.2 µM in assay [5]. The TGI in [6] is 46.7 µM; in assay [8] it was 37.2 µM; in [9] it was greater than 100 µM; in assay [10], greater than 100 µM; in [11], 46.1 µM.
Regarding `O=C(Nc1nccs1)NS(=O)(=O)n1cnc2ccccc21`, the TGI in [1], in assay [2], in [3], in assay [4], in assay [5] and in [6] was greater than 100 µM in each case. Further, the TGI in assay [7], in assay [8], in assay [9], in [10] and in [11] was greater than 100 µM in each case.
As for `CCOC1=NC(C(F)(F)F)(C(F)(F)F)N=C(N2CCCCC2)O1`, the TGI in [1], in [2], in assay [3], in assay [4], in [12] and in assay [5] was greater than 100 µM throughout. For the same compound, the TGI in assay [6], in assay [8], in assay [9], in [10] and in assay [11] was greater than 100 µM each time.
`CCNC1=C(NC(=O)CCl)C(=O)c2ccccc2C1=O`: the TGI in assay [1] was 30.3 µM; in assay [2] it was 44 µM; in [3], 38.3 µM; in assay [4] it was 29.6 µM; in assay [12], greater than 100 µM; in [5], 34.9 µM. The TGI in assay [7] is greater than 10 µM; in assay [8], 31.5 µM; in [9], greater than 10 µM; in [10] it was 60.6 µM; in [11], 32.2 µM.
